Measurements as given in patent US20080194493A1, “Compositions Containing D-Carnosine” (priority 2004, published 2008).
Read-outs that look alike come from different tables or passages of the source.

Columns and labels:
[1] = Crossing of the blood-brain barrier (stated, no method)
[2] = Reactivity towards HNE in homogeneous solution (aldehyde consumption by liquid chromatography); format: biochemical; conditions: for inhibited HNE: HNE 10 μm in 10 mM phosphate buffer, molar ratios 1:10 and 1:20
Description: The almost identical reactivity compared with the L-form towards cytotoxic aldehydes, especially HNE and acrolein, was confirmed in a homogenous solution of HNE (10 μm) and acrolein (200 μm) in 10 mM phosphate buffer in molar ratios of the dipeptides amounting to 1:10 and 1:20. […]

[3] = In vivo acute study, oral administration to Wistar rats; conditions: 570 mg/kg
Description: (§1) An LC-MS/MS technique, validated in the 5-250 μM range, with detection limits of 50-20 picomoles, was set-up for this purpose.
(§2) In the in vivo acute studies, D- and L-carnosine were administered orally to Wistar rats (320 g±25 g) in the form of an aqueous solution at pH 7.4 (HCl) at the dose of 570 mg/kg.

Zucker rats = test: Pharmacological effects of chronic treatment in Zucker rats; format: in vivo
Excerpt: In particular, D-carnosine is effective for the treatment or prevention of disorders involving highly reactive and cytotoxic carbonyl derivatives (HNE, acrolein, malonyldialdehyde, glyoxal and dimethylglyoxal), especially Alzheimer's disease, atherosclerosis, disorders secondary to diabetes, age-associated tissue degeneration such as sarcopenia, and correlated disorders. Forms designed for topical administration are particularly indicated for the latter.

[4] = Chronic treatment with the diet water in obese-Zucker rats: levels in plasma, urine and kidney
Description: The stability of L- and D-carnosine was compared in human plasma and serum in vitro, and in vivo in the rat (acute and chronic treatment). An LC-MS/MS technique, validated in the 5-250 μM range, with detection limits of 50-20 picomoles, was set-up for this purpose.
In chronic treatment, D- and L-camosine were administered with the diet water for 12 weeks at a dose of 30 mg/Kg. The experiment was carried out by using obese-Zucker rats (Charles River), an animal model of metabolic disorders, characterized by hyperinsulinemia, insulin resistance, obesity, hypertriglyceridemia, hypercholesterolemia, and by an increased formation of lipid derived carbonyls, protein carbonylation and appearance of carbonyl-dependent degenerative process such as nephropathy and vascular dysfunction, (Metz T O, Alderson N L, Chachich M E, Thorpe S R, Baynes J W, Pyridoxamine traps intermediates in lipid peroxidation reactions in vivo: evidence on the role of lipids in chemical modification of protein and development of diabetic complications, J Biol Chem. 2003 October 24;278(43):42012-9.

[5] = In vitro stability in human plasma (LC-MS/MS); conditions: after 6 hours incubation at 37° C., in the presence and absence of cadmium chloride
carnosinases = molecular target: T1, carnosinases (Homo sapiens, UniProt Q96KN2); conditions: cited from earlier work
T1 construct: host or cells: human serum
T1 sequence (Q96KN2 27-507 limits assumed): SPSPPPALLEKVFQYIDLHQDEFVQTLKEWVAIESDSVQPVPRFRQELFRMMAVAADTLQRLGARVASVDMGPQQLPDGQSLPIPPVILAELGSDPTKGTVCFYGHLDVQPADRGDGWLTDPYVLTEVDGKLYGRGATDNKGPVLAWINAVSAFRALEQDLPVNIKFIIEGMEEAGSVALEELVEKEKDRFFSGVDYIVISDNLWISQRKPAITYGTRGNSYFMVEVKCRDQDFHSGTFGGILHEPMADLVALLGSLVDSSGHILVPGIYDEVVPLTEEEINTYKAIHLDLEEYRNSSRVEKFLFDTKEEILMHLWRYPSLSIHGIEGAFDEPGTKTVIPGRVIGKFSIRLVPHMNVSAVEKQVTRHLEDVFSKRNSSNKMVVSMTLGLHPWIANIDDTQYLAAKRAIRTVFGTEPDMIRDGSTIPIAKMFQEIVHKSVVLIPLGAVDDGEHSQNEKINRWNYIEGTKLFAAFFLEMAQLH

[6] = rat, in vivo, po, 570 mg/kg
Description: as §1, §2

[7] = 30 mg/Kg with the diet water for 12 weeks

SMILES	blood-brain barrier crossing [1]	activity towards HNE compared with aminoguanidine and methoxyamine [2]	reaction kinetics with HNE [2]	inhibited HNE ([2]; after 24 hours)	inhibited HNE ([2]; after one hour's incubation)	Cmax reached at (time) [3]	pharmacological levels maintained up to [3]	time to disappear from the administration [3]	pharmacological effects of chronic treatment (Zucker rats)	level in plasma [4, 7]	level in the kidney [4, 7]	level in urine [4, 7]	increase of D-carnosine in respect to L-carnosine in plasma ([4]; 30 mg/Kg, 12 weeks)	increase of D-carnosine in respect to L-carnosine in urine as well as in the kidney ([4]; 30 mg/Kg, 12 weeks)	stability in human plasma [5]	hydrolysis in human serum (carnosinases)	stability in human plasma	time to disappear from the administration ([6]; Wistar)	Cmax (time at which reached) [6]
NCCC(=O)N[C@H](Cc1cnc[nH]1)C(=O)O [D-carnosine]	able to cross the blood-brain barrier	far more active towards HNE than aminoguanidine and methoxyamine	first-order profile	98.3%	49.2%	2 h	up to 8 hours	24 h	restrain: hypertriglyceridemia, hypercholesterolemia, hyperthenison, and carbonyl related disesases such as vascular dysfunction and nephropathy	1240 ± 300 nM	340.2±12.3 nmoles/gr wt tissue	6688±345 nmoles over 24 hrs	6 fold	more than a ten-fold increase	remained unchanged	–	–	–	–
NCCC(=O)N[C@@H](Cc1cnc[nH]1)C(=O)O [L-carnosine, β-alanyl-L-histidine]	–	–	–	96.4%	44%	–	–	–	–	–	–	–	–	–	–	rapidly hydrolysed	undetectable	≤ 2 h	60 min
